Measurements from US12551532B2, “Long-acting amylin receptor agonists and uses thereof” (Eli Lilly and Company, priority 2021, dated 2026).
Starred links: 1 amine or outer side, 2 acyl side, 3 side chain; linkers in the order of their positions; H or OH if unused. Positions of bridges follow the written chain, without caps; N, C: chain ends. Non-standard residues stand in square brackets, D forms with d. Residues, ends and D or L forms follow the SMILES beside them. Groups on a side chain read outwards from the residue. *: point of attachment. C20 diacid = O=C(O)CCCCCCCCCCCCCCCCCCC(=O)*; γGlu = O=C(O)[C@H](CCC(=O)[*:2])N[*:1]; αMeF = C[C@](N)(Cc1ccccc1)C(=O)O; NMeD = CN[C@@H](CC(=O)O)C(=O)O; αMeL = CC(C)C[C@](C)(N)C(=O)O; Orn = NCCC[C@H](N)C(=O)O; CH2 = C([*:1])[*:2]

Key:
[1] = target: T1, human calcitonin receptor (hCTR) (Homo sapiens, UniProt P30988); assay: hCTR competitive radioligand binding filter assay (125I-hCT); settings: ± SE; membranes of hCTR overexpressing cells
T1 construct: expressed in transfected cells; host or cells: membranes of UM-UC-3 (UMUC3) cells stably expressing human CTa
T1 sequence (P30988 25-474): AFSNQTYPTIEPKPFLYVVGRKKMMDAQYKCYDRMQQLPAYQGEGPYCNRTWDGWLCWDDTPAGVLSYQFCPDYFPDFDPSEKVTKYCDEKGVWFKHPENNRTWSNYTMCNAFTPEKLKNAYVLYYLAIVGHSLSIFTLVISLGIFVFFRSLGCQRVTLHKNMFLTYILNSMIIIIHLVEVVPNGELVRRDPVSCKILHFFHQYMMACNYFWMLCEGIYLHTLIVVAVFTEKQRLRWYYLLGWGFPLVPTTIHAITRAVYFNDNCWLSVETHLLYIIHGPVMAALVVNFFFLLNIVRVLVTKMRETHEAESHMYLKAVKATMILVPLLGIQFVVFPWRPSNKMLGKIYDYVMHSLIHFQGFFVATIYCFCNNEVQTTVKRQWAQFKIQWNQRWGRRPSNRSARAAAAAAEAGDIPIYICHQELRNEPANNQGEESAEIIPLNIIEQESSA
Experimental: The equilibrium dissociation constants (Kd) for the various receptor/radioligand interactions are determined from saturation binding analysis using the same reagents and buffers as described below for compound testing.
The receptor binding affinity (Ki) of rAMY, hCT, and hAMY agonist peptides on hCTR membranes is determined from a competitive radioligand binding filter assay.

[2] = Pharmacokinetics in male Sprague Dawley rats; type: in vivo; settings: single SC 30 nmol/kg, mean; for CL/F / Tmax / half-life: rat, plasma; for CL/F / Tmax / AUCINF/D / Cmax/D: n = 3; for half-life: n = 3, read-out: T l/2 (converted)
Experimental: The pharmacokinetics of Compound II (SEQ ID NO:2), Compound IV (SEQ ID NO:4), Compound VI (SEQ ID NO:6), and Compound VIII (SEQ ID NO:8) are evaluated following a single subcutaneous administration of 30 nmol/kg to male Sprague Dawley rats. Blood samples are collected at 1, 3, 6, 12, 24, 48, 72, 96 hours post SC dose. The resulting individual plasma concentrations are used to calculate pharmacokinetic parameters. Peptide plasma (K3EDTA) concentrations are determined using a qualified LC/MS method that measured the intact mass of the peptides. Each peptide and an analog as an internal standard are extracted from plasma. A high resolution Thermo Q-Exactive is used for LC/MS detection.

human dendritic cells = type: cell-based
Experimental: MAPPS profiles the MHC-II presented peptides on human dendritic cells treated with tested molecules. CD14+ cells, isolated from the PBMCs of normal human donors, are cultured and differentiated into immature DCs by incubation with IL-4 and GM-CSF. On day 4, culture media is replaced with fresh media containing tested molecules. On day 5, LPS is added to transform the cells into mature DCs. On day 6, cells are lysed in RIPA buffer with protease inhibitors. Immunoprecipitation of MHC-II complexes are performed using biotinylated anti-MHC-II antibody coupled to streptavidin beads. The bound complex is eluted and filtered. The isolated MHC-II peptides are analyzed by a mass spectrometer. Peptide identifications are generated by an internal proteomics pipeline using search algorithms with no enzyme and a bovine/human database with test sequences appended to the database. A KNIME workflow is used to process the identification files from the samples. Peptides identified from the test articles are aligned against the parent sequence of the test molecule. The output is used to determine the percentage of donors displaying MHC-II peptides from regions of the test molecule. Compound II, Compound IV, Compound VI, Compound VIII, a compound representative of U.S. Pat. No. 9,023,789 (hereinafter “Compound '789”), and Pramlintide are tested in the MAPPs assay.

[3] = system: pre-existing antibodies (ADA) in normal human serum; assay: Pre-existing reactivity (ACE assay format); settings: >50 donors; treatment-naive normal human serum
Experimental: This assay assesses the presence of pre-existing antibodies (ADA) against the tested molecules in treatment-naive normal human serum (NHS). Diluted NHS is incubated overnight on a Pierce Streptavidin plate coated with biotinylated tested molecules. On the following day, the captured binding proteins are acid eluted, hard-coated to a Mesoscale (MSD) plate, and detected with a combination of biotin-labeled molecule and ruthenium-labeled streptavidin. If anti-drug antibodies are present, they will bind the labeled drug and the resulting signal is referred to as Tier 1 signal (expressed as electrochemiluminescence). This signal is confirmed in Tier 2 by adding excess unlabeled tested molecule in the detection step, which results in the suppression of the Tier 1 signal. The presence of pre-existing anti-drug antibodies is expressed as magnitude of the 90th percentile of Tier 2 inhibition. The 90th percentile of Tier 2 inhibition, is a statistical tool to assess the magnitude of specificity of Tier 1 reactivity. This 90th percentile is used to rank molecules in terms of ADA risk.

[4] = Food intake and body weight in normal rats, single SC dose; type: in vivo, Sprague Dawley rats; settings: for Δ Body Weight: 96 hours post dose vs initial weights; for Cumulative Food Intake Change vs Vehicle: 96 hours post dose vs vehicle
Experimental: Male Sprague Dawley rats from Envigo RMS (Indianapolis, IN) are maintained on a chow diet (2014; Teklad Global, Envigo RMS, Indianapolis, IN) and single housed in a temperature-controlled facility (72.0° F.; 22.2° C.) with a reversed 12:12-hour light cycle (10 AM OFF) and free access to food and water. At 10 weeks of age, non-fasted body weights and initial food weights are recorded, and animals are administered a single subcutaneous injection (SC) of vehicle or acylated peptide (1 mL/kg), followed by daily measurements of body weight and food intake for 4 days post dose. Area under the curve analysis (AUC) is calculated for both body weight and food intake versus vehicle.

Row | SMILES | Ki [1] | CL/F [2] | Tmax [2] | half-life [2] | AUCINF/D [2] | Cmax/D [2] | MAPPS Assay donors displayed peptides (human dendritic cells) | MAPPS Assay immunogenicity risk (human dendritic cells) | peptides displayed on MHC-II complexes (human dendritic cells) | Pre-existing Reactivity 90th percentile T2 inhibition [3] | also measured
1 | CC[C@H](C)[C@H](NC(=O)[C@@H]1CCCN1C(=O)CNC(=O)[C@H](Cc1ccccc1)NC(=O)[C@H](CC(=O)O)N(C)C(=O)[C@H](CC(N)=O)NC(=O)[C@H](CO)NC(=O)[C@H](CO)NC(=O)[C@H](CCCNC(=N)N)NC(=O)[C@@H](NC(=O)[C@H](CC(C)C)NC(=O)[C@](C)(Cc1ccccc1)NC(=O)[C@H](CCC(=O)O)NC(=O)[C@H](C)NC(=O)[C@H](CC(C)C)NC(=O)[C@H](CCCN)NC(=O)CNC(=O)[C@@H](NC(=O)[C@H](C)NC(=O)[C@@H]1CSCSC[C@H](NC(=O)[C@@H](N)CCCCNC(=O)CC[C@H](NC(=O)CC[C@H](NC(=O)CCCCCCCCCCCCCCCCCCC(=O)O)C(=O)O)C(=O)O)C(=O)N[C@@H](CCC(=O)O)C(=O)N[C@@H]([C@@H](C)O)C(=O)N[C@@H](C)C(=O)N[C@@H]([C@@H](C)O)C(=O)N1)[C@@H](C)O)C(C)C)C(=O)N[C@@H](CC(C)C)C(=O)N1CCC[C@H]1C(=O)N1CCC[C@H]1C(=O)N[C@H](C(=O)N[C@@H](CCC(=O)O)C(=O)N[C@H](C(=O)NCC(=O)N[C@@H](CO)C(=O)N[C@@H](CC(N)=O)C(=O)N[C@H](C(=O)N[C@@H](Cc1ccc(O)cc1)C(N)=O)[C@@H](C)O)C(C)C)[C@@H](C)O [Compound VI, KCETATCATG-Orn-LAE-αMeF-LVRSSN-NMeD-FGPILPPTEVGSNTY-NH2] (H-K([γGlu-γGlu-C20 diacid])CETATCATG[Orn]LAE[αMeF]LVRSSN[NMeD]FGPILPPTEVGSNTY-NH2; linker 2-7 via CH2) | 235 ± 45 nM | 2 mL/h/kg | 24 h | 54 ± 8.4 h | 506 ± 26.6 hr * kg * nmol/L/nmol | 5.4 ± 0.5 kg * nmol/L/nmol | no peptides | Low Risk | no peptides displayed on MHC-II complexes | 43.9% | 
2 | CC[C@H](C)[C@H](NC(=O)[C@@H]1CCCN1C(=O)CNC(=O)[C@H](Cc1ccccc1)NC(=O)[C@H](CC(N)=O)NC(=O)[C@H](Cc1c[nH]cn1)NC(=O)[C@H](CO)NC(=O)[C@H](CO)NC(=O)[C@H](CCCNC(=N)N)NC(=O)[C@@H](NC(=O)[C@H](CC(C)C)NC(=O)[C@H](Cc1ccccc1)NC(=O)[C@H](CCC(=O)O)NC(=O)[C@H](C)NC(=O)[C@](C)(CC(C)C)NC(=O)[C@H](CCCN)NC(=O)CNC(=O)[C@@H](NC(=O)[C@H](C)NC(=O)[C@@H]1CSCSC[C@H](NC(=O)[C@@H](N)CCCCNC(=O)CC[C@H](NC(=O)CC[C@H](NC(=O)CCCCCCCCCCCCCCCCCCC(=O)O)C(=O)O)C(=O)O)C(=O)N[C@@H](CCC(=O)O)C(=O)N[C@@H]([C@@H](C)O)C(=O)N[C@@H](C)C(=O)N[C@@H]([C@@H](C)O)C(=O)N1)[C@@H](C)O)C(C)C)C(=O)N[C@@H](CC(C)C)C(=O)N1CCC[C@H]1C(=O)N1CCC[C@H]1C(=O)N[C@H](C(=O)N[C@@H](CCC(=O)O)C(=O)N[C@H](C(=O)NCC(=O)N[C@@H](CO)C(=O)N[C@@H](CC(N)=O)C(=O)N[C@H](C(=O)N[C@@H](Cc1ccc(O)cc1)C(N)=O)[C@@H](C)O)C(C)C)[C@@H](C)O [Compound VIII] (H-K([γGlu-γGlu-C20 diacid])CETATCATG[Orn][αMeL]AEFLVRSSHNFGPILPPTEVGSNTY-NH2; linker 2-7 via CH2) | 927 ± 120 nM | 3.7 mL/h/kg | 16 ± 6.9 h | 36.4 ± 2.93 h | 270 ± 22.4 hr * kg * nmol/L/nmol | 3.8 ± 0.4 kg * nmol/L/nmol | no peptides | Low Risk | no peptides displayed on MHC-II complexes | 51.4% | Δ Body Weight ([4]; 0.1 nmol/kg SC single dose): 2.0%; Cumulative Food Intake Change vs Vehicle ([4]; 0.1 nmol/kg SC single dose): 1.3%; Δ Body Weight ([4]; 0.3 nmol/kg SC single dose): 1.6%; Cumulative Food Intake Change vs Vehicle ([4]; 0.3 nmol/kg SC single dose): 3.2%; Δ Body Weight ([4]; 1 nmol/kg SC single dose): −1.0%; Cumulative Food Intake Change vs Vehicle ([4]; 1 nmol/kg SC single dose): −17.5%; Δ Body Weight ([4]; 3 nmol/kg SC single dose): −3.9%; Cumulative Food Intake Change vs Vehicle ([4]; 3 nmol/kg SC single dose): −37.7%; Δ Body Weight ([4]; 10 nmol/kg SC single dose): −7.2%; Cumulative Food Intake Change vs Vehicle ([4]; 10 nmol/kg SC single dose): −58.5%; Δ Body Weight ([4]; 30 nmol/kg SC single dose): −10.8%; Cumulative Food Intake Change vs Vehicle ([4]; 30 nmol/kg SC single dose): −67.0%; Δ Body Weight ([4]; 100 nmol/kg SC single dose): −13.8%; Cumulative Food Intake Change vs Vehicle ([4]; 100 nmol/kg SC single dose): −75.2%; Δ Body Weight ([4]; 300 nmol/kg SC single dose): −13.6%; Cumulative Food Intake Change vs Vehicle ([4]; 300 nmol/kg SC single dose): −74.9%; Δ Body Weight ([4]; 1000 nmol/kg SC single dose): −18.9%; Cumulative Food Intake Change vs Vehicle ([4]; 1000 nmol/kg SC single dose): −84.7%
